Among the data in patent EP2272817A1, “PAI-1 INHIBITOR” (Institute of Medicinal Molecular Design, Inc., priority 2008, dated 2009) are inhibition values, retold here.
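Further: PAI-1 preincubated with compound, then two-chain tPA added, residual tPA activity read with fluorogenic Pyr-Gly-Arg-MCA substrate after 30 min at room temperature.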

In the assay the target is recombinant human PAI-1 (Homo sapiens, UniProt P05121). Kind of assay: biochemical. The conditions noted are these: read-out: Inhibition Rate of PAI-1 Activity (%).
recombinant human PAI-1, sequence (P05121 24-402): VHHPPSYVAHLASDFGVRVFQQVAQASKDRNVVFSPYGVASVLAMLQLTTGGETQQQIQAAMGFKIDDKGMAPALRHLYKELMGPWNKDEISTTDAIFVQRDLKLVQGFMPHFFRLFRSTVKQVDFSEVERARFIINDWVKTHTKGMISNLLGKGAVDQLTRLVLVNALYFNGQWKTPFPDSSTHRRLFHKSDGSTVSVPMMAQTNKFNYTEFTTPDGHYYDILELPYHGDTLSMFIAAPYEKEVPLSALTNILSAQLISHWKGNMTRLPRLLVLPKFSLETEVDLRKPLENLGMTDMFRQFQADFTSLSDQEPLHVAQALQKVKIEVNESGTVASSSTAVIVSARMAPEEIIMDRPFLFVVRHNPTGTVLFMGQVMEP
A word on the inhibition: it is how much of the control response was suppressed. As to `CC(C)(C)c1ccc(N(C(=O)C(=O)O)c2ccc(-c3ccc(OC(F)(F)F)cc3)cc2)cc1` [Compound 128], the inhibition at 5 µM is 58% and the inhibition at 10 µM worked out at 89%.

On to `COc1ccc(CN(C(=O)C(=O)O)c2ccc(-c3ccc(OC(F)(F)F)cc3)cc2)cc1` [Compound 131], for which the inhibition at 10 µM worked out at 10% and the inhibition at 25 µM is 34%.

For `CC(C)(C)c1ccc(CN(C(=O)C(=O)O)c2ccc(Oc3ccc(OC(F)(F)F)cc3)cc2)cc1` [Compound 132], the inhibition at 10 µM was found to be 32% and the inhibition at 25 µM stood at 82%.

Turning to `CC(C)(C)c1ccc(CN(C(=O)C(=O)O)c2ccc(-c3ccc(OC(F)(F)F)cc3)cc2)cc1` [Compound 133], the inhibition at 5 µM was 80% and the inhibition at 10 µM turned out to be 92%.

`CSc1ccc(-c2ccc(N(Cc3ccc(C(C)(C)C)cc3)C(=O)C(=O)O)cc2)cc1` [Compound 134]: the inhibition at 10 µM stood at 14% and the inhibition at 25 µM was 75%.

`CC(C)(C)c1ccc(CN(C(=O)C(=O)O)c2ccc(-c3ccc(Cl)cc3)cc2)cc1` [Compound 135]: the inhibition at 10 µM amounted to 6% and the inhibition at 25 µM stood at 67%.

For `Cc1ccc(-c2ccc(OC(F)(F)F)cc2)cc1N(Cc1ccc(C(C)(C)C)cc1)C(=O)C(=O)O` [Compound 136], the inhibition at 5 µM was found to be 16%, the inhibition at 10 µM stood at 47% and the inhibition at 25 µM is 79%.

Consider `Cc1ccc(-c2ccccc2)cc1N(Cc1ccc(C(C)(C)C)cc1)C(=O)C(=O)O` [Compound 137], for which the inhibition at 10 µM was determined as 5% and the inhibition at 25 µM was found to be 61%.

Turning to `Cc1ccc(-c2cccc([N+](=O)[O-])c2)cc1N(Cc1ccc(C(C)(C)C)cc1)C(=O)C(=O)O` [Compound 138], the inhibition at 10 µM was 4% and the inhibition at 25 µM came to 61%.

Consider `CC(C)(C)c1ccc(CN(C(=O)C(=O)O)c2cc(-c3ccccc3)cc(C(F)(F)F)c2)cc1` [Compound 140], for which the inhibition at 5 µM is 6%, the inhibition at 10 µM came to 31% and the inhibition at 25 µM was determined as 77%.

As to `Cc1ccc(-c2ccc(N(Cc3ccc(C(C)(C)C)cc3)C(=O)C(=O)O)cc2)cc1` [Compound 141], the inhibition at 10 µM was found to be 5% and the inhibition at 25 µM came to 52%.

In the case of `CC(C)(C)c1ccc(CN(C(=O)C(=O)O)c2ccc(-c3cccc([N+](=O)[O-])c3)cc2)cc1` [Compound 142], the inhibition at 10 µM was 3% and the inhibition at 25 µM was found to be 33%.

For the compound `Cc1ccc(CN(C(=O)C(=O)O)c2ccc(-c3ccc(OC(F)(F)F)cc3)cc2)cc1` [Compound 143], the inhibition at 10 µM was found to be 1% and the inhibition at 25 µM is 22%.

As for `O=C(O)C(=O)N(Cc1ccc(Cl)cc1Cl)c1ccc(-c2ccc(OC(F)(F)F)cc2)cc1` [Compound 144], the inhibition at 5 µM was determined as 3%, the inhibition at 10 µM came to 22% and the inhibition at 25 µM came out at 76%.

`CC(C)(C)c1ccc(CN(C(=O)C(=O)O)c2ccc(-c3ccc(C(F)(F)F)cc3)cc2)cc1` [Compound 145]: the inhibition at 5 µM worked out at 7%, the inhibition at 10 µM is 35% and the inhibition at 25 µM was 74%.

With `Cc1cc(-c2ccc(OC(F)(F)F)cc2)ccc1N(Cc1ccc(C(C)(C)C)cc1)C(=O)C(=O)O` [Compound 146], the inhibition at 5 µM amounted to 33%, the inhibition at 10 µM is 73% and the inhibition at 25 µM is 90%.

On to `CC(C)(C)c1ccc(CN(C(=O)C(=O)O)c2ccccc2-c2ccc(OC(F)(F)F)cc2)cc1` [Compound 148], for which the inhibition at 5 µM came to 17%, the inhibition at 10 µM was 55% and the inhibition at 25 µM came out at 98%.

On to `CC(C)(C)c1ccc(CN(C(=O)C(=O)O)c2ccc(-c3ccc(C#N)cc3)cc2)cc1` [Compound 149], for which the inhibition at 10 µM turned out to be 3% and the inhibition at 25 µM amounted to 34%.

With `CC(C)(C)c1ccc(CN(C(=O)C(=O)O)c2ccc(-c3ccc(OC(F)(F)F)cc3)cc2C(F)(F)F)cc1` [Compound 150], the inhibition at 5 µM came to 33%, the inhibition at 10 µM was 75% and the inhibition at 25 µM worked out at 87%.

For `CC(C)(C)c1ccc(CN(C(=O)C(=O)O)c2ccc(-c3ccc(OC(F)(F)F)cc3)cc2OC(F)(F)F)cc1` [Compound 151], the inhibition at 5 µM came out at 35%, the inhibition at 10 µM is 80% and the inhibition at 25 µM was 90%.

With `Cc1cc(-c2ccc(OC(F)(F)F)cc2)cc(C)c1N(Cc1ccc(C(C)(C)C)cc1)C(=O)C(=O)O` [Compound 152], the inhibition at 5 µM was 41%, the inhibition at 10 µM is 88% and the inhibition at 25 µM is 93%.

As to `CC(C)(C)c1ccc(CN(C(=O)C(=O)O)c2ccccc2Oc2ccc(OC(F)(F)F)cc2)cc1` [Compound 153], the inhibition at 5 µM stood at 20%, the inhibition at 10 µM is 54% and the inhibition at 25 µM was 93%.

With `O=C(O)C(=O)N(Cc1ccccc1)c1ccc(Oc2ccc(OC(F)(F)F)cc2)cc1` [Compound 154], the inhibition at 10 µM was 3% and the inhibition at 25 µM turned out to be 20%.

As for `O=C(O)C(=O)N(Cc1ccc(F)cc1)c1ccc(-c2ccc(OC(F)(F)F)cc2)cc1` [Compound 155], the inhibition at 5 µM was 7%, the inhibition at 10 µM turned out to be 15% and the inhibition at 25 µM turned out to be 38%.

For the compound `CC(C)(C)c1ccc(-c2ccc(N(Cc3ccccc3)C(=O)C(=O)O)cc2)cc1` [Compound 156], the inhibition at 5 µM was determined as 10%, the inhibition at 10 µM was 25% and the inhibition at 25 µM stood at 67%.

For `CC(C)(C)c1ccc(N(C(=O)C(=O)O)c2ccccc2-c2ccc(OC(F)(F)F)cc2)cc1` [Compound 157], the inhibition at 5 µM amounted to 25%, the inhibition at 10 µM stood at 56% and the inhibition at 25 µM was found to be 96%.

For the compound `CC(C)(C)c1ccc(N(C(=O)C(=O)O)c2cccc(-c3ccc(OC(F)(F)F)cc3)c2)cc1` [Compound 158], the inhibition at 5 µM worked out at 26%, the inhibition at 10 µM came to 61% and the inhibition at 25 µM was greater than 99%.

In the case of `O=C(O)C(=O)N(Cc1ccc(OC(F)(F)F)cc1)c1ccc(-c2ccc(OC(F)(F)F)cc2)cc1` [Compound 159], the inhibition at 5 µM is 21%, the inhibition at 10 µM worked out at 45% and the inhibition at 25 µM is 92%.

As for `CSc1ccc(CN(C(=O)C(=O)O)c2ccc(-c3ccc(OC(F)(F)F)cc3)cc2)cc1` [Compound 160], the inhibition at 5 µM worked out at 14%, the inhibition at 10 µM was 26% and the inhibition at 25 µM worked out at 68%.

Turning to `O=C(O)C(=O)N(Cc1ccc(-c2ccccc2)cc1)c1ccc(-c2ccc(OC(F)(F)F)cc2)cc1` [Compound 161], the inhibition at 5 µM worked out at 27%, the inhibition at 10 µM is 62% and the inhibition at 25 µM is greater than 99%.

With `CC(C)(C)c1ccc(-c2ccc(N(Cc3ccc(OC(F)(F)F)cc3)C(=O)C(=O)O)cc2)cc1` [Compound 162], the inhibition at 5 µM was found to be 30%, the inhibition at 10 µM was 74% and the inhibition at 25 µM was greater than 99%.

Turning to `CC(C)(C)c1ccc(CN(C(=O)C(=O)O)c2ccc(-c3ccc(C(C)(C)C)cc3)cc2)cc1` [Compound 163], the inhibition at 5 µM turned out to be 37%, the inhibition at 10 µM amounted to 84% and the inhibition at 25 µM is greater than 99%.

In the case of `CCCCc1ccc(-c2ccc(N(Cc3ccc(C(C)(C)C)cc3)C(=O)C(=O)O)cc2)cc1` [Compound 164], the inhibition at 5 µM worked out at 40%, the inhibition at 10 µM turned out to be 79% and the inhibition at 25 µM was 96%.

Consider `CC(C)(C)c1ccc(N(C(=O)C(=O)O)c2ccc(Oc3ccc(OC(F)(F)F)cc3)cc2)cc1` [Compound 165], for which the inhibition at 5 µM stood at 27%, the inhibition at 10 µM came to 64% and the inhibition at 25 µM amounted to 96%.

Regarding `CC(C)(C)c1ccc(CN(C(=O)C(=O)O)c2ccc(-c3ccc(OC(F)(F)F)cc3)c(C(F)(F)F)c2)cc1` [Compound 166], the inhibition at 5 µM was determined as 44%, the inhibition at 10 µM was determined as 79% and the inhibition at 25 µM amounted to 84%.

Take `CCCCc1ccc(CN(C(=O)C(=O)O)c2ccc(-c3ccc(OC(F)(F)F)cc3)cc2)cc1` [Compound 167]: the inhibition at 5 µM stood at 37%, the inhibition at 10 µM was 75% and the inhibition at 25 µM was found to be 87%.

As to `CC(C)(C)c1ccc(CN(C(=O)C(=O)O)c2ccc(C(F)(F)F)cc2-c2ccc(OC(F)(F)F)cc2)cc1` [Compound 169], the inhibition at 5 µM was 59%, the inhibition at 10 µM turned out to be 91% and the inhibition at 25 µM is 84%.

Consider `CC(C)(C)c1ccc(N(C(=O)C(=O)O)c2cccc(Oc3ccc(OC(F)(F)F)cc3)c2)cc1` [Compound 170], for which the inhibition at 5 µM turned out to be 38%, the inhibition at 10 µM came out at 73% and the inhibition at 25 µM amounted to 94%.

In the case of `O=C(O)C(=O)N(Cc1c(Cl)cccc1Cl)c1ccc(-c2ccc(OC(F)(F)F)cc2)cc1` [Compound 171], the inhibition at 5 µM stood at 22%, the inhibition at 10 µM worked out at 44% and the inhibition at 25 µM came out at 81%.

As for `CC(C)(C)c1ccc(CN(C(=O)C(=O)O)c2c(Cl)cc(-c3ccc(OC(F)(F)F)cc3)cc2Cl)cc1` [Compound 173], the inhibition at 5 µM was 63%, the inhibition at 10 µM turned out to be 95% and the inhibition at 25 µM is 90%.

Consider `CC(C)(C)c1ccc(CN(C(=O)C(=O)O)c2cc(Oc3ccc(OC(F)(F)F)cc3)cc(C(F)(F)F)c2)cc1` [Compound 175], for which the inhibition at 5 µM worked out at 66%, the inhibition at 10 µM came to 94% and the inhibition at 25 µM was found to be 87%.

With `Cc1c(-c2ccc(OC(F)(F)F)cc2)cccc1N(Cc1ccc(C(C)(C)C)cc1)C(=O)C(=O)O` [Compound 177], the inhibition at 5 µM was 43%, the inhibition at 10 µM came out at 83% and the inhibition at 25 µM is 91%.

On to `Cc1cc(-c2ccc(OC(F)(F)F)cc2)cc(N(Cc2ccc(C(C)(C)C)cc2)C(=O)C(=O)O)c1` [Compound 178], for which the inhibition at 5 µM worked out at 56%, the inhibition at 10 µM came to 88% and the inhibition at 25 µM stood at 88%.
